Results reported in ChEMBL document CHEMBL1152405, “Bis-anthracenyl isoxazolyl amides have enhanced anticancer activity” (Bioorg Med Chem Lett, 2009).

Assays:
Type in all cases: functional
[1] = test system: SF-539; experiment: Growth inhibition of human SF539 cells after 24 hrs by MTT assay; settings: SF-539, 24 h
[2] = test system: HOP-62; experiment: Growth inhibition of human HOP62 cells after 24 hrs by MTT assay; settings: HOP-62, 24 h
[3] = test system: IGROV-1; experiment: Growth inhibition of human IGROV1 cells after 24 hrs by MTT assay; settings: IGROV-1, 24 h
[4] = test system: NCI/ADR-RES; experiment: Growth inhibition of human NCI/ADR-RES cells at 10 uM after 24 hrs by MTT assay relative to control; parameters: scale not given: the % may be the effect or the level left
[5] = Growth inhibition of human […] cells at 10 uM after 24 hrs by MTT assay relative to control; parameters: scale not given: the % may be the effect or the level left
[6] = test system: HL-60(TB); experiment: Growth inhibition of human HL-60(TB) cells at 10 uM after 24 hrs by MTT assay relative to control; parameters: scale not given: the % may be the effect or the level left
[7] = test system: U-251; experiment: Growth inhibition of human U251 cells at 10 uM after 24 hrs by MTT assay relative to control; parameters: scale not given: the % may be the effect or the level left
[8] = test system: 786-0; experiment: Growth inhibition of human 786-0 cells at 10 uM after 24 hrs by MTT assay relative to control; parameters: scale not given: the % may be the effect or the level left
[9] = test system: SK-MEL-28; experiment: Growth inhibition of human SK-MEL-28 cells at 10 uM after 24 hrs by MTT assay relative to control; parameters: scale not given: the % may be the effect or the level left
[10] = test system: HCT-116; experiment: Growth inhibition of human HCT116 cells after 24 hrs by MTT assay; settings: HCT-116, 24 h
[11] = test system: MOLT-4; experiment: Growth inhibition of human MOLT4 cells after 24 hrs by MTT assay; settings: MOLT-4, 24 h
[12] = test system: SF-539; experiment: Growth inhibition of human SF539 cells at 10 uM after 24 hrs by MTT assay relative to control; parameters: scale not given: the % may be the effect or the level left
[13] = test system: NCI-H522; experiment: Growth inhibition of human NCI-H522 cells at 10 uM after 24 hrs by MTT assay relative to control; parameters: scale not given: the % may be the effect or the level left
[14] = test system: RXF 393; experiment: Growth inhibition of human RXF393 cells after 24 hrs by MTT assay; settings: RXF 393, 24 h
[15] = test system: OVCAR-3; experiment: Growth inhibition of human OVCAR-3 cells at 10 uM after 24 hrs by MTT assay relative to control; parameters: scale not given: the % may be the effect or the level left
[16] = test system: NCI-H23; experiment: Growth inhibition of human NCI-H23 cells at 10 uM after 24 hrs by MTT assay relative to control; parameters: scale not given: the % may be the effect or the level left
[17] = test system: MDA-MB-435; experiment: Growth inhibition of human MDA-MB-435 cells after 24 hrs by MTT assay; settings: MDA-MB-435, 24 h
[18] = test system: NCI-H23; experiment: Growth inhibition of human NCI-H23 cells after 24 hrs by MTT assay; settings: NCI-H23, 24 h
[19] = test system: SN12C; experiment: Growth inhibition of human SN12C cells at 10 uM after 24 hrs by MTT assay relative to control; parameters: scale not given: the % may be the effect or the level left
[20] = test system: UACC-257; experiment: Growth inhibition of human UACC257 cells at 10 uM after 24 hrs by MTT assay relative to control; parameters: scale not given: the % may be the effect or the level left
[21] = test system: HCC 2998; experiment: Growth inhibition of human HCC2998 cells at 10 uM after 24 hrs by MTT assay relative to control; parameters: scale not given: the % may be the effect or the level left
[22] = test system: T47D; experiment: Growth inhibition of human T47D cells after 24 hrs by MTT assay
[23] = test system: BT-549; experiment: Growth inhibition of human BT549 cells at 10 uM after 24 hrs by MTT assay relative to control; parameters: scale not given: the % may be the effect or the level left
[24] = test system: A498; experiment: Growth inhibition of human A498 cells at 10 uM after 24 hrs by MTT assay relative to control; parameters: scale not given: the % may be the effect or the level left
[25] = test system: HCT-116; experiment: Growth inhibition of human HCT116 cells at 10 uM after 24 hrs by MTT assay relative to control; parameters: scale not given: the % may be the effect or the level left
[26] = test system: CAKI-1; experiment: Growth inhibition of human Caki1 cells at 10 uM after 24 hrs by MTT assay relative to control; parameters: scale not given: the % may be the effect or the level left
[27] = test system: NCI-H322M; experiment: Growth inhibition of human NCI-H322M cells after 24 hrs by MTT assay
[28] = test system: MCF7; experiment: Growth inhibition of human MCF7 cells after 24 hrs by MTT assay; settings: MCF7, 24 h
[29] = test system: M14; experiment: Growth inhibition of human M14 cells at 10 uM after 24 hrs by MTT assay relative to control; parameters: scale not given: the % may be the effect or the level left
[30] = test system: 786-0; experiment: Growth inhibition of human 786-0 cells after 24 hrs by MTT assay; settings: 786-0, 24 h
[31] = test system: UACC-62; experiment: Growth inhibition of human UACC62 cells at 10 uM after 24 hrs by MTT assay relative to control; parameters: scale not given: the % may be the effect or the level left
[32] = test system: SNB-19; experiment: Growth inhibition of human SNB19 cells at 10 uM after 24 hrs by MTT assay relative to control; parameters: scale not given: the % may be the effect or the level left
[33] = test system: NCI-H322M; experiment: Growth inhibition of human NCI-H322M cells at 10 uM after 24 hrs by MTT assay relative to control; parameters: scale not given: the % may be the effect or the level left
[34] = test system: UO-31; experiment: Growth inhibition of human UO31 cells at 10 uM after 24 hrs by MTT assay relative to control; parameters: scale not given: the % may be the effect or the level left
[35] = test system: K562; experiment: Growth inhibition of human K562 cells at 10 uM after 24 hrs by MTT assay relative to control; parameters: scale not given: the % may be the effect or the level left
[36] = test system: OVCAR-5; experiment: Growth inhibition of human OVCAR5 cells at 10 uM after 24 hrs by MTT assay relative to control; parameters: scale not given: the % may be the effect or the level left
[37] = test system: SK-OV-3; experiment: Growth inhibition of human SKOV3 cells at 10 uM after 24 hrs by MTT assay relative to control; parameters: scale not given: the % may be the effect or the level left
[38] = test system: ACHN; experiment: Growth inhibition of human ACHN cells after 24 hrs by MTT assay
[39] = read-out: LC50 (the source's name)
[40] = read-out: pLC50 (the source's name) (converted)

Cc1onc(-c2c3ccccc3c(Cl)c3ccccc23)c1C(=O)Nc1cc(C(=O)NCCCN(C)CCCNC(=O)c2cc(NC(=O)c3c(-c4c5ccccc5c(Cl)c5ccccc45)noc3C)cn2C)n(C)c1
TGI [1]: 2720 nM | GI50 ([1]; read-out: GI50): 1420 nM | CC50 [1, 39]: 5220 nM | GI50 ([1]; read-out: pGI50 (converted)): 1410 nM | CC50 [1, 40]: 5250 nM | TGI [2]: 2650 nM | GI50 ([2]; read-out: GI50): 1360 nM | CC50 [2, 39]: 5140 nM | GI50 ([2]; read-out: pGI50 (converted)): 1350 nM | CC50 [2, 40]: 5130 nM | TGI [3]: 3260 nM | GI50 ([3]; read-out: GI50): 1430 nM | CC50 [3, 39]: 7420 nM | GI50 ([3]; read-out: pGI50 (converted)): 1450 nM | CC50 [3, 40]: 7410 nM | Activity [4]: 47.82% | Activity [5]: -100% | Activity [6]: -94.78% | Activity [7]: -100% | Activity [8]: -81.64% | Activity [9]: -100% | TGI [10]: 2880 nM | GI50 ([10]; read-out: GI50): 1540 nM | GI50 ([10]; read-out: pGI50 (converted)): 1550 nM | TGI [11]: 2430 nM | GI50 ([11]; read-out: GI50): 615 nM | CC50 [11, 39]: 7960 nM | GI50 ([11]; read-out: pGI50 (converted)): 617 nM | CC50 [11, 40]: 7940 nM | Activity [12]: -100% | Activity [13]: -85.33% | TGI [14]: 3300 nM | GI50 ([14]; read-out: GI50): 1630 nM | GI50 ([14]; read-out: pGI50 (converted)): 1620 nM | Activity [15]: -100% | Activity [16]: -73.08% | TGI [17]: 3400 nM | GI50 ([17]; read-out: GI50): 1900 nM | GI50 ([17]; read-out: pGI50 (converted)): 1910 nM | TGI [18]: 3010 nM | GI50 ([18]; read-out: GI50): 1540 nM | CC50 [18, 39]: 5850 nM | GI50 ([18]; read-out: pGI50 (converted)): 1550 nM | CC50 [18, 40]: 5890 nM | Activity [19]: -96.46% | Activity [20]: -60.8% | Activity [21]: -91.29% | TGI [22]: 5080 nM | GI50 ([22]; read-out: GI50): 1690 nM | CC50 [22, 39]: 24500 nM | GI50 ([22]; read-out: pGI50 (converted)): 1700 nM | CC50 [22, 40]: 24500 nM | Activity [23]: -49.26% | Activity [24]: 103.19% | Activity [25]: -84.49% | Activity [26]: -74.88% | TGI [27]: 4870 nM | GI50 ([27]; read-out: GI50): 2180 nM | CC50 [27, 39]: 14600 nM | GI50 ([27]; read-out: pGI50 (converted)): 2190 nM | CC50 [27, 40]: 14500 nM | TGI [28]: 2400 nM | GI50 ([28]; read-out: GI50): 1180 nM | CC50 [28, 39]: 4900 nM | GI50 ([28]; read-out: pGI50 (converted)): 1170 nM | CC50 [28, 40]: 4900 nM | Activity [29]: -92.68% | TGI [30]: 4940 nM | GI50 ([30]; read-out: GI50): 2130 nM | CC50 [30, 39]: 16700 nM | GI50 ([30]; read-out: pGI50 (converted)): 2140 nM | CC50 [30, 40]: 16600 nM | Activity [31]: -100% | Activity [32]: -100% | Activity [33]: -97.3% | Activity [34]: -80.7% | Activity [35]: -100% | Activity [36]: -85.02% | Activity [37]: -100% | TGI [38]: 3040 nM | GI50 ([38]; read-out: GI50): 1630 nM | GI50 ([38]; read-out: pGI50 (converted)): 1620 nM
